Measurements from PubChem BioAssay AID248 (DTP/NCI, 2004).
Values joined by “and” are separate entries in the source; they are usually repeats but may differ in a detail not shown here. Equal values may be shown once. Inconclusive results and toxic doses are left out. Cut-off read from the data, not from the text of the source: active = T/C of 150% or more; inactive = T/C below 125%.

System: L1210 leukemia ip in BDF1 mice, survival T/C
Assay: NCI In Vivo Anticancer Drug Screen. Data for tumor model L1210 Leukemia (intraperitoneal) in B6D2F1 (BDF1) mice
Conditions: endpoint: mean survival time, higher = longer survival
Procedure, shortened: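 Mice bearing the transplanted tumor received compound or vehicle. Survival of the treated group was divided by that of the vehicle-treated control group to give the ratio.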

[1] = dose: 100.0 mg/kg/injection, schedule: Q04DX003 (ip), vehicle: Klucel (hydroxypropylcellulose) (HPC)
[2] = dose: 200.0 mg/kg/injection, schedule: Q04DX003 (ip), vehicle: Klucel (hydroxypropylcellulose) (HPC)
[3] = dose: 50.0 mg/kg/injection, schedule: Q01DX001 (ip), vehicle: saline
[4] = dose: 100.0 mg/kg/injection, schedule: Q01DX001 (ip), vehicle: saline
[5] = dose: 200.0 mg/kg/injection, schedule: Q01DX001 (ip), vehicle: saline
[6] = dose: 400.0 mg/kg/injection, schedule: Q01DX001 (ip), vehicle: saline
[7] = dose: 100.0 mg/kg/injection, schedule: Q04DX003 (ip), vehicle: saline with Tween-80
[8] = dose: 200.0 mg/kg/injection, schedule: Q04DX003 (ip), vehicle: saline with Tween-80
[9] = dose: 400.0 mg/kg/injection, schedule: Q04DX003 (ip), vehicle: saline with Tween-80
[10] = dose: 100.0 mg/kg/injection, schedule: Q01DX009 (ip), vehicle: Klucel (hydroxypropylcellulose) (HPC)
[11] = dose: 200.0 mg/kg/injection, schedule: Q01DX009 (ip), vehicle: Klucel (hydroxypropylcellulose) (HPC)
[12] = dose: 400.0 mg/kg/injection, schedule: Q01DX009 (ip), vehicle: Klucel (hydroxypropylcellulose) (HPC)
[13] = dose: 400.0 mg/kg/injection, schedule: Q04DX003 (ip), vehicle: Klucel (hydroxypropylcellulose) (HPC)
[14] = dose: 100.0 mg/kg/injection, schedule: Q01DX009 (ip), vehicle: saline with Tween-80
[15] = dose: 200.0 mg/kg/injection, schedule: Q01DX009 (ip), vehicle: saline with Tween-80
[16] = dose: 400.0 mg/kg/injection, schedule: Q01DX009 (ip), vehicle: saline with Tween-80
[17] = dose: 25.0 mg/kg/injection, schedule: Q04DX003 (ip), vehicle: saline
[18] = dose: 50.0 mg/kg/injection, schedule: Q04DX003 (ip), vehicle: saline

Measured: T/C

CCCCCCCCCCCCCCCCCOc1ccc(I)cc1
inactive: [1] 91 % of control | [2] 91 % of control

CCOC(=O)N1C(c2ccccc2)N(c2ccccc2)C(c2ccccc2)N1C(=O)OCC (centres undefined)
inactive: [3] 108 % of control | [4] 103 % of control | [5] 108 % of control | [6] 103 % of control

c1ccc(CN2CCOCC2)nc1
inactive: [4] 96 % of control | [5] 113 % of control | [6] 98 % of control

Cc1n[nH]c(C)c1Br
inactive: dose: 75.0 mg/kg/injection, schedule: Q01DX009 (ip), vehicle: saline with Tween-80 95 % of control | dose: 75.0 mg/kg/injection, schedule: Q04DX003 (ip), vehicle: saline with Tween-80 97 % of control | dose: 150.0 mg/kg/injection, schedule: Q01DX009 (ip), vehicle: saline with Tween-80 97 % of control | dose: 150.0 mg/kg/injection, schedule: Q04DX003 (ip), vehicle: saline with Tween-80 95 % of control | dose: 300.0 mg/kg/injection, schedule: Q01DX009 (ip), vehicle: saline with Tween-80 99 % of control | dose: 300.0 mg/kg/injection, schedule: Q04DX003 (ip), vehicle: saline with Tween-80 98 % of control

O=C1NC(=O)C(c2ccc3c(c2)OCO3)N1 (centres undefined)
inactive: [7] 104 % of control | [8] 102 % of control | [9] 101 % of control

CSc1ncnc2c1nnn2C1OC(CO)C(O)C1O (centres undefined)
inactive: dose: 12.5 mg/kg/injection, schedule: Q01DX001 (ip), vehicle: saline 97 % of control | dose: 25.0 mg/kg/injection, schedule: Q01DX001 (ip), vehicle: saline 103 % of control | [3] 115 % of control | dose: 75.0 mg/kg/injection, schedule: Q01DX001 (ip), vehicle: saline 114 % of control | [4] 110 % of control | dose: 150.0 mg/kg/injection, schedule: Q01DX001 (ip), vehicle: saline 110 % of control

O=[N+]([O-])c1ccc(CC(O)c2ccccc2Cl)cc1 (centres undefined)
inactive: [10] 102 % of control | [1] 101 % of control | [11] 102 % of control | [2] 101 % of control | [12] 97 % of control | [13] 97 % of control

C#CCOCCC(=O)O
inactive: dose: 100.0 mg/kg/injection, schedule: Q04DX003 (ip), vehicle: acetone 106 % of control

COc1cc2ccc3c4cc5c(cc4c[n+](C)c3c2cc1OC)OCO5
inactive: dose: 10.0 mg/kg/injection, schedule: Q01DX009 (ip), vehicle: saline 124 % of control | dose: 20.0 mg/kg/injection, schedule: Q01DX009 (ip), vehicle: saline 112 % of control | dose: 40.0 mg/kg/injection, schedule: Q01DX009 (ip), vehicle: saline 122 % of control

O=CNc1ccc(C(=O)O)cc1
inactive: [14] 95 % of control | [15] 100 % of control | [16] 95 % of control

CC(O)C(N)C(=O)O (centres undefined)
inactive: dose: 12.5 mg/kg/injection, schedule: Q04DX002 (ip), vehicle: saline 103 % of control and 97 % of control | dose: 18.75 mg/kg/injection, schedule: Q04DX003 (ip), vehicle: saline 101 % of control | dose: 25.0 mg/kg/injection, schedule: Q04DX002 (ip), vehicle: saline 107 % of control | dose: 37.5 mg/kg/injection, schedule: Q04DX003 (ip), vehicle: saline 98 % of control | dose: 50.0 mg/kg/injection, schedule: Q04DX002 (ip), vehicle: saline 107 % of control | dose: 75.0 mg/kg/injection, schedule: Q04DX003 (ip), vehicle: saline 108 % of control and 114 % of control | dose: 100.0 mg/kg/injection, schedule: Q01DX001 (ip), vehicle: carboxymethylcellulose (CMC) 87 % of control | dose: 100.0 mg/kg/injection, schedule: Q04DX002 (ip), vehicle: saline 107 % of control | dose: 150.0 mg/kg/injection, schedule: Q04DX003 (ip), vehicle: saline 108 % of control | dose: 200.0 mg/kg/injection, schedule: Q01DX001 (ip), vehicle: carboxymethylcellulose (CMC) 91 % of control | [11] 91 % of control | dose: 200.0 mg/kg/injection, schedule: Q04DX002 (ip), vehicle: saline 93 % of control | dose: 300.0 mg/kg/injection, schedule: Q04DX003 (ip), vehicle: saline 94 % of control | dose: 400.0 mg/kg/injection, schedule: Q01DX001 (ip), vehicle: carboxymethylcellulose (CMC) 89 % of control | dose: 400.0 mg/kg/injection, schedule: Q04DX002 (ip), vehicle: saline 107 % of control

CCN(CC)C(=O)c1cc([N+](=O)[O-])ccc1OCc1ccccc1
inactive: dose: 25.0 mg/kg/injection, schedule: Q04DX002 (ip), vehicle: saline with Tween-80 98 % of control | dose: 50.0 mg/kg/injection, schedule: Q04DX002 (ip), vehicle: saline with Tween-80 98 % of control | dose: 100.0 mg/kg/injection, schedule: Q04DX002 (ip), vehicle: saline with Tween-80 110 % of control and 91 % of control | dose: 200.0 mg/kg/injection, schedule: Q04DX002 (ip), vehicle: saline with Tween-80 89 % of control | dose: 400.0 mg/kg/injection, schedule: Q04DX002 (ip), vehicle: saline with Tween-80 95 % of control

CNC(CNC(CO)CC(C)C)Cc1ccc(OCc2ccccc2)cc1 (centres undefined)
inactive: dose: 12.5 mg/kg/injection, schedule: Q01DX009 (ip), vehicle: saline 102 % of control | dose: 25.0 mg/kg/injection, schedule: Q01DX009 (ip), vehicle: saline 91 % of control | [17] 95 % of control | dose: 50.0 mg/kg/injection, schedule: Q01DX009 (ip), vehicle: saline 94 % of control | [18] 95 % of control | dose: 100.0 mg/kg/injection, schedule: Q04DX003 (ip), vehicle: saline 95 % of control

CCCCCCCc1ccc(N=Cc2ccc(OCCC)cc2)cc1
inactive: [14] 100 % of control | [15] 87 % of control | [16] 86 % of control

NS(=O)(=O)O.[Ni]
inactive: dose: 16.0 mg/kg/injection, schedule: Q04DX003 (ip), vehicle: saline 108 % of control | [17] 92 % of control | dose: 35.0 mg/kg/injection, schedule: Q04DX003 (ip), vehicle: saline 93 % of control | [18] 103 % of control

Cc1ccc(C)c(OC(=O)NC2CCCCC2)c1
inactive: [10] 93 % of control | [1] 101 % of control | [11] 92 % of control | [2] 104 % of control | [12] 95 % of control | [13] 98 % of control

NC(=O)C1(NC2CCCCC2)CCN(Cc2ccccc2)CC1
inactive: dose: 50.0 mg/kg/injection, schedule: Q01DX009 (ip), vehicle: gum acacia 100 % of control | dose: 100.0 mg/kg/injection, schedule: Q01DX009 (ip), vehicle: gum acacia 100 % of control | dose: 100.0 mg/kg/injection, schedule: Q04DX003 (ip), vehicle: gum acacia 96 % of control | dose: 200.0 mg/kg/injection, schedule: Q01DX009 (ip), vehicle: gum acacia 93 % of control | dose: 200.0 mg/kg/injection, schedule: Q04DX003 (ip), vehicle: gum acacia 96 % of control

CCCCCCCCCCCCOc1ccc(C)cc1
inactive: [14] 97 % of control | [7] 88 % of control | [15] 93 % of control | [8] 88 % of control | [16] 97 % of control | [9] 93 % of control

O=C(O)c1ccc(Cl)cc1Cl
inactive: dose: 100.0 mg/kg/injection, schedule: Q04DX002 (ip), vehicle: gum acacia 88 % of control | dose: 200.0 mg/kg/injection, schedule: Q04DX002 (ip), vehicle: gum acacia 98 % of control | dose: 400.0 mg/kg/injection, schedule: Q04DX002 (ip), vehicle: gum acacia 100 % of control

O=C(O)Cc1ccc2ccccc2c1
inactive: [3] 101 % of control | [4] 103 % of control | [5] 107 % of control | [6] 103 % of control

CC(=O)/C(=C\c1ccc(Cl)c(Cl)c1)C(=O)c1ccccc1
inactive: dose: 100.0 mg/kg/injection, schedule: Q01DX009 (ip), vehicle: other 97 % of control | dose: 100.0 mg/kg/injection, schedule: Q04DX003 (ip), vehicle: other 95 % of control | dose: 200.0 mg/kg/injection, schedule: Q01DX009 (ip), vehicle: other 103 % of control | dose: 200.0 mg/kg/injection, schedule: Q04DX003 (ip), vehicle: other 91 % of control | dose: 400.0 mg/kg/injection, schedule: Q04DX003 (ip), vehicle: other 93 % of control
